SMILES strings stand for the structures.

This series is described as follows: in vitro. The conditions noted are these: human, hela cells, % viability.
As to `NC(=O)c1cccc(-c2nccnc2N2CCN(CCO)CC2)c1` [CBK036726], the viability at 28.5 h, 10 µM turned out to be 96.9%.

Regarding `COc1ccccc1-c1nccnc1N1CCCC1CO` (stereo not shown) [CBK036735], the viability at 28.5 h, 10 µM is 102%.

On to `C=CCNC(=O)c1cnc(-c2ccc(Cl)cc2)c(-c2ccco2)c1` [CBK036738], for which the viability at 28.5 h, 10 µM was found to be 90.6%.

Consider `COCCNc1nccnc1-c1cccs1` [CBK036739], for which the viability at 28.5 h, 10 µM stood at 100%.

In the case of `CN(C)c1cccc(C(=O)Nc2cnc(-c3cccc(C(F)(F)F)c3)c(-c3cccnc3)n2)c1` [CBK036752], the viability at 28.5 h, 10 µM was 90.4%.

For the molecule `C[C@@H](Nc1nccnc1-c1cccnc1)c1ccccc1` [CBK036759], the viability at 28.5 h, 10 µM was determined as 109%.

With `COC(=O)c1cscc1NC(=O)c1cnc(-c2cccc(C)c2)c(-c2ccc(C(C)=O)s2)c1` [CBK036760], the viability at 28.5 h, 10 µM came to 85.4%.

As for `CC(=O)c1ccc(-c2cc(C(=O)NC3CCc4ccccc43)cnc2-c2ccc(Cl)cc2)s1` (stereo not shown) [CBK036762], the viability at 28.5 h, 10 µM came to 96.9%.

`c1csc(-c2nccnc2NCCc2ccncc2)c1` [CBK036764]: the viability at 28.5 h, 10 µM was 108%.

As to `O=C(NCCn1cc[nH]c1=O)c1cnc(-c2ccc(Cl)cc2)c(-c2ccc(O)cc2)c1` [CBK036766], the viability at 28.5 h, 10 µM worked out at 92%.

On to `Fc1cccc(-c2nccnc2NCC2CC2)c1` [CBK036767], for which the viability at 28.5 h, 10 µM worked out at 94.4%.

On to `Cc1cccc(-c2ncc(C(=O)NCc3csc4ccc(Cl)cc34)cc2-c2ccncc2)c1` [CBK036770], for which the viability at 28.5 h, 10 µM is 89.6%.

Consider `COc1ccccc1-c1nccnc1N(C)Cc1ccccc1` [CBK036774], for which the viability at 28.5 h, 10 µM was 102%.

As to `c1ccc(CCNc2nccnc2-c2cccs2)nc1` [CBK036776], the viability at 28.5 h, 10 µM was 97.7%.

For `CS(=O)(=O)c1cccc(C(=O)Nc2cnc(-c3ccc(F)c(Cl)c3)c(-c3cccnc3)n2)c1` [CBK036779], the viability at 28.5 h, 10 µM was 101%.

For the molecule `Cc1noc(C)c1C(=O)Nc1cnc(-c2ccc(F)cc2)c(-c2ccsc2)n1` [CBK036781], the viability at 28.5 h, 10 µM is 97.6%.

With `CCOc1ccccc1C(=O)Nc1cnc(-c2cccc(C)c2)c(-c2ccc(N)cc2)n1` [CBK036783], the viability at 28.5 h, 10 µM turned out to be 107%.

Turning to `COc1cccc(CNc2nccnc2-c2cccs2)c1OC` [CBK036784], the viability at 28.5 h, 10 µM came to 95.7%.

Turning to `COc1ccc(-c2nc(NC(=O)c3ccccn3)cnc2-c2cccc(C(F)(F)F)c2)cc1` [CBK036785], the viability at 28.5 h, 10 µM was 110%.

In the case of `CN1CCCC(C(=O)Nc2cnc(-c3cccc(C(F)(F)F)c3)c(-c3cccnc3)n2)C1` (stereo not shown) [CBK036787], the viability at 28.5 h, 10 µM came to 87.2%.

As for `COc1ccccc1-c1nccnc1NCc1ccc(C(F)(F)F)cc1` [CBK036788], the viability at 28.5 h, 10 µM worked out at 109%.

As to `c1ccc(CCNc2nccnc2-c2ccoc2)nc1` [CBK036790], the viability at 28.5 h, 10 µM worked out at 86.1%.

As for `O=C(Nc1cnc(-c2ccc(F)c(Cl)c2)c(-c2cccnc2)n1)c1ccc(N2CCCC2=O)cc1` [CBK036794], the viability at 28.5 h, 10 µM was determined as 107%.

Take `Cc1cccc(CNc2nccnc2-c2cccs2)c1` [CBK036808]: the viability at 28.5 h, 10 µM worked out at 104%.

`CC(=O)NCC(=O)Nc1cnc(-c2cccc(C(F)(F)F)c2)c(-c2cccnc2)n1` [CBK036809]: the viability at 28.5 h, 10 µM came to 103%.

For the molecule `O=C(c1ccc(-c2nccnc2N2CCN(CCO)CC2)cc1)N1CCOCC1` [CBK036812], the viability at 28.5 h, 10 µM turned out to be 92.1%.

For `COc1ccc(-c2nc(NC(=O)C3CCC(OC)CC3)cnc2-c2cccc(C)c2)cn1` (stereo not shown) [CBK036813], the viability at 28.5 h, 10 µM amounted to 109%.

Take `COc1ccc(NC(=O)c2ccc(-c3ccc(Nc4ccc5c(c4)OCCO5)nc3)cc2)cc1` [CBK036815]: the viability at 28.5 h, 10 µM was determined as 88.7%.

Consider `CC(=O)c1ccc(-c2nc(NC(=O)c3cccc([N+](=O)[O-])c3)cnc2-c2ccc(F)c(Cl)c2)s1` [CBK036816], for which the viability at 28.5 h, 10 µM was 97.2%.

In the case of `COc1ncc(-c2nccnc2NCc2cccnc2)c(OC)n1` [CBK036817], the viability at 28.5 h, 10 µM turned out to be 101%.

`COc1ccc(Nc2cccc(-c3cnc(OC)nc3OC)n2)cc1` [CBK036825]: the viability at 28.5 h, 10 µM was 89.6%.

Consider `CCCCCOc1ccc(Nc2ccc(-c3cc4ccccc4o3)cn2)cc1` [CBK036828], for which the viability at 28.5 h, 10 µM is 93.6%.

Consider `CC(=O)Nc1cccc(-c2ccc(Nc3cccc(N(C)C)c3)nc2)c1` [CBK036829], for which the viability at 28.5 h, 10 µM amounted to 97.9%.

For `COc1cccc(CCC(=O)Nc2cnc(-c3cccc(C(F)(F)F)c3)c(-c3cccnc3)n2)c1` [CBK036835], the viability at 28.5 h, 10 µM is 90%.

`CS(=O)(=O)c1ccc(CNc2nccnc2-c2ccccc2F)cc1` [CBK036836]: the viability at 28.5 h, 10 µM worked out at 96.4%.

For `OCc1cccc(-c2nccnc2NCC(O)COc2ccccc2)c1` (stereo not shown) [CBK036842], the viability at 28.5 h, 10 µM was determined as 94.3%.

Regarding `c1cc(-c2ccc(Nc3ccc(N4CCOCC4)cc3)nc2)cs1` [CBK036844], the viability at 28.5 h, 10 µM was determined as 97.6%.

`C=CCNc1nccnc1-c1ccncc1` [CBK036845]: the viability at 28.5 h, 10 µM was determined as 90.7%.

Regarding `COc1cc(-c2nccnc2N2CCN(c3ccncc3)CC2)cc(OC)c1OC` [CBK036847], the viability at 28.5 h, 10 µM is 92%.

Turning to `OCCN1CCN(c2ccc(/C=C/c3ccccc3)cn2)CC1` [CBK036849], the viability at 28.5 h, 10 µM is 89.2%.

Take `COc1ccc(-c2nc(NC(=O)C3CC3)cnc2-c2cccc(C(F)(F)F)c2)cc1` [CBK036852]: the viability at 28.5 h, 10 µM came out at 98%.

Take `C(=C\c1cccc(N2CCN(CCN3CCCC3)CC2)n1)/c1ccccc1` [CBK036853]: the viability at 28.5 h, 10 µM was 97.8%.

As to `COc1ccc(Nc2ccc(-c3ccsc3)cn2)c(C)c1` [CBK036855], the viability at 28.5 h, 10 µM is 109%.

As to `CCCCCOc1ccc(Nc2ccc(-c3cccc(Cl)c3Cl)cn2)cc1` [CBK036856], the viability at 28.5 h, 10 µM stood at 111%.

With `CC(=O)Nc1cccc(-c2ccc(N3CCN(CCN(C)C)CC3)nc2)c1` [CBK036857], the viability at 28.5 h, 10 µM worked out at 104%.

For the molecule `OC(CNc1nccnc1-c1ccco1)COc1ccccc1` (stereo not shown) [CBK036862], the viability at 28.5 h, 10 µM worked out at 96.7%.

With `O=C(Cc1c[nH]c2ccccc12)Nc1cnc(-c2cccc(OC(F)(F)F)c2)c(-c2cccnc2)n1` [CBK036863], the viability at 28.5 h, 10 µM was found to be 108%.

Take `C=CCNc1nccnc1-c1ccc(CO)cc1` [CBK036870]: the viability at 28.5 h, 10 µM was found to be 91.4%.

For `C=CCNc1nccnc1-c1cc(OC)c(OC)c(OC)c1` [CBK036872], the viability at 28.5 h, 10 µM was determined as 102%.

Turning to `Fc1ccc(-c2cccc(N3CCN(c4ccccn4)CC3)n2)cc1Cl` [CBK036877], the viability at 28.5 h, 10 µM stood at 104%.

For the molecule `O=C(Nc1cnc(-c2cccc(C(F)(F)F)c2)c(-c2cccnc2)n1)c1cc(-c2ccco2)n[nH]1` [CBK036878], the viability at 28.5 h, 10 µM came to 104%.

For `CN1CCC(C(=O)Nc2cnc(-c3cccc(OC(F)(F)F)c3)c(-c3cccnc3)n2)CC1` [CBK036882], the viability at 28.5 h, 10 µM turned out to be 108%.

Regarding `CN(C)c1cccc(Nc2ccc(-c3ccco3)cn2)c1` [CBK036885], the viability at 28.5 h, 10 µM is 96.8%.

With `CCCC/C=C/c1ccc(Nc2ccc(N3CCOCC3)cc2)nc1` [CBK036886], the viability at 28.5 h, 10 µM came out at 88.7%.

For `O=C(c1ccc(-c2nccnc2NCCc2c[nH]c3ccccc23)cc1)N1CCOCC1` [CBK036891], the viability at 28.5 h, 10 µM came to 95.6%.

With `CCCNc1nccnc1-c1ccc(C(=O)N2CCN(C)CC2)cc1` [CBK036892], the viability at 28.5 h, 10 µM turned out to be 110%.

On to `O=C(COc1ccccc1[N+](=O)[O-])Nc1cnc(-c2cccc(C(F)(F)F)c2)c(-c2ccco2)n1` [CBK036899], for which the viability at 28.5 h, 10 µM worked out at 86.3%.

In the case of `CN(C)c1ccc(-c2nccnc2NCc2ccc(S(C)(=O)=O)cc2)cc1` [CBK036902], the viability at 28.5 h, 10 µM is 104%.

Turning to `COc1ccc(C(C)C)cc1-c1nccnc1NCc1ccc(S(C)(=O)=O)cc1` [CBK036903], the viability at 28.5 h, 10 µM came to 92.5%.

As for `CCOc1cccc(-c2ccc(N(C)CCN(C)C)nc2)c1` [CBK036904], the viability at 28.5 h, 10 µM stood at 94.8%.

For `CN(C)CCN1CCN(c2ccc(-c3ccsc3)cn2)CC1` [CBK036915], the viability at 28.5 h, 10 µM was 96.2%.

Take `CN1CCN(c2cccc(-c3ccsc3)n2)CC1` [CBK036916]: the viability at 28.5 h, 10 µM was 90.2%.

For the molecule `Cc1cc(-c2nccnc2NCc2ccccn2)cc(C)c1O` [CBK036921], the viability at 28.5 h, 10 µM is 94.2%.

As for `C=CCNc1nccnc1-c1cnc(OC)nc1OC` [CBK036922], the viability at 28.5 h, 10 µM was 91.7%.

For the molecule `COc1ncc(-c2nccnc2N[C@@H]2CCN(Cc3ccccc3)C2)c(OC)n1` [CBK036926], the viability at 28.5 h, 10 µM was determined as 101%.

For `COc1ccc(C(C)C)cc1-c1nccnc1NCC1COC(C)(C)O1` (stereo not shown) [CBK036930], the viability at 28.5 h, 10 µM worked out at 101%.

`O=C(c1ccc(-c2nccnc2NCc2ccc(C(F)(F)F)cc2)cc1)N1CCOCC1` [CBK036931]: the viability at 28.5 h, 10 µM is 100%.

In the case of `COc1ncc(-c2ccc(NCC(C)C)nc2)c(OC)n1` [CBK036934], the viability at 28.5 h, 10 µM was 116%.

Take `COc1cc(-c2nccnc2NCc2ccccn2)cc(OC)c1OC` [CBK036936]: the viability at 28.5 h, 10 µM was determined as 96.8%.

With `COCCC(=O)Nc1cnc(-c2ccc(F)c(Cl)c2)c(-c2cccnc2)n1` [CBK036938], the viability at 28.5 h, 10 µM was determined as 95.2%.

For `OCCN1CCN(c2ccc(-c3cc(C(F)(F)F)cc(C(F)(F)F)c3)cn2)CC1` [CBK036941], the viability at 28.5 h, 10 µM is 99%.

With `COc1ccc(Nc2cccc(-c3ccc(CCC(=O)O)cc3)n2)cc1` [CBK036943], the viability at 28.5 h, 10 µM amounted to 106%.

Turning to `CN1CCN(c2ccc(-c3ccc(Cl)cc3)cn2)CC1` [CBK036945], the viability at 28.5 h, 10 µM turned out to be 95.2%.

For the molecule `CCCCCOc1ccc(Nc2ccc(-c3cccnc3)cn2)cc1` [CBK036948], the viability at 28.5 h, 10 µM was determined as 109%.

For the molecule `O=C1CCC(C(=O)Nc2cnc(-c3cccc(C(F)(F)F)c3)c(-c3cccnc3)n2)=NN1` [CBK036950], the viability at 28.5 h, 10 µM amounted to 88.3%.

With `CCN(CC)CCN1CCN(c2cc(-c3cccnc3)ncn2)CC1` [CBK036957], the viability at 28.5 h, 10 µM turned out to be 94.8%.

For `O=c1[nH]ccn1CCNc1cc(-c2ccccc2Oc2ccccc2)ncn1` [CBK036966], the viability at 28.5 h, 10 µM came out at 90.4%.

Consider `O=C(CCOc1ccccc1)Nc1cnc(-c2ccc(F)cc2)c(-c2ccco2)n1` [CBK036967], for which the viability at 28.5 h, 10 µM was 93.1%.

On to `CC(=O)c1ccc(-c2nccnc2NCC(O)COc2ccccc2)s1` (stereo not shown) [CBK036976], for which the viability at 28.5 h, 10 µM amounted to 107%.

What is called viability is a read-out of living cells in per cent, often relative to untreated cells.

(Values after PMC12040169 (PLOS Biology, 2025).)
